How the values were obtained:
Experiment in all cases: relative viability (nuclei count vs DMSO), 5 days (fraction); higher = more cells survive
[1] = compound: O=C(NC1CCNCC1)c1n[nH]cc1NC(=O)c1c(Cl)cccc1Cl [AT-7519] + CC(C)C[C@H](NC(=O)[C@H](Cc1ccccc1)NC(=O)c1cnccn1)B(O)O [Bortezomib] (partner 0.002 µM)
Method in brief: (§1)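 Lung cancer cell lines were seeded in 1536-well plates and dosed by pin tool the next day, with either a single drug or a fixed anchor-drug dose combined with five library-drug doses (not always all listed) spaced in √10 steps. Five days later, one step fixed the cells and stained their nuclei (final 0.05% Triton X-100, 1% formaldehyde, 1 ug/ml Hoechst), and nuclei were counted on 4× images. Relative viability is the nuclei count in treated wells divided by the count in vehicle wells, and each value is the median of duplicate plates.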

[2] = compound: O=C(NC1CCNCC1)c1n[nH]cc1NC(=O)c1c(Cl)cccc1Cl [AT-7519] + C[C@]1(O)C[C@@H](c2nc(-c3ccc4ccc(-c5ccccc5)nc4c3)c3c(N)nccn32)C1 [Linsitinib] (partner 1 µM)
Method in brief: as §1

[3] = compound: C1=CC2=C(C=C(C(=C2N=C1)O)N=NC3=CC4=C(C=C3)C=C(C=C4)S(=O)(=O)O)S(=O)(=O)O + O=C(c1cc(Cc2n[nH]c(=O)c3ccccc23)ccc1F)N1CCN(C(=O)C2CC2)CC1 [Olaparib] (partner 8 µM)
Method in brief: as §1

[4] = compound: C1=CC2=C(C=C(C(=C2N=C1)O)N=NC3=CC4=C(C=C3)C=C(C=C4)S(=O)(=O)O)S(=O)(=O)O + Cc1nc(NC(=O)N2CCC[C@H]2C(N)=O)sc1-c1ccnc(C(C)(C)C(F)(F)F)c1 [Alpelisib] (partner 2 µM)
Method in brief: as §1

BEN
relative viability ([1]; first compound 0.01 µM): 0.958
relative viability ([1]; first compound 0.03162 µM): 0.766
relative viability ([1]; first compound 0.3162 µM): 0.935
relative viability ([1]; first compound 1 µM): 0.82
relative viability ([2]; first compound 0.01 µM): 0.887
relative viability ([2]; first compound 0.03162 µM): 0.894
relative viability ([2]; first compound 0.3162 µM): 0.864
relative viability ([2]; first compound 1 µM): 0.785
relative viability ([3]; first compound 0.08 µM): 0.868
relative viability ([3]; first compound 0.253 µM): 1.13
relative viability ([3]; first compound 0.8 µM): 1.05
relative viability ([3]; first compound 2.53 µM): 1.27
relative viability ([3]; first compound 8 µM): 0.974
relative viability ([4]; first compound 0.08 µM): 1.26
relative viability ([4]; first compound 0.253 µM): 0.962
relative viability ([4]; first compound 0.8 µM): 0.847
relative viability ([4]; first compound 2.53 µM): 1.04
relative viability ([4]; first compound 8 µM): 0.932

NCI-H1666
relative viability ([1]; first compound 0.01 µM): 0.782
relative viability ([1]; first compound 0.03162 µM): 0.794
relative viability ([1]; first compound 0.3162 µM): 0.733
relative viability ([1]; first compound 1 µM): 0.333
relative viability ([2]; first compound 0.01 µM): 0.727
relative viability ([2]; first compound 0.03162 µM): 0.784
relative viability ([2]; first compound 0.3162 µM): 0.807
relative viability ([2]; first compound 1 µM): 0.376
relative viability ([3]; first compound 0.08 µM): 0.863
relative viability ([3]; first compound 0.253 µM): 0.754
relative viability ([3]; first compound 0.8 µM): 0.762
relative viability ([3]; first compound 2.53 µM): 0.745
relative viability ([3]; first compound 8 µM): 0.712
relative viability ([4]; first compound 0.08 µM): 0.985
relative viability ([4]; first compound 0.253 µM): 0.837
relative viability ([4]; first compound 0.8 µM): 1.05
relative viability ([4]; first compound 2.53 µM): 0.994
relative viability ([4]; first compound 8 µM): 1.04

LC-2-ad
relative viability ([1]; first compound 0.01 µM): 0.962
relative viability ([1]; first compound 0.03162 µM): 0.978
relative viability ([1]; first compound 0.3162 µM): 1.02
relative viability ([1]; first compound 1 µM): 0.672
relative viability ([2]; first compound 0.01 µM): 0.754
relative viability ([2]; first compound 0.03162 µM): 0.832
relative viability ([2]; first compound 0.3162 µM): 0.908
relative viability ([2]; first compound 1 µM): 0.464
relative viability ([3]; first compound 0.08 µM): 0.72
relative viability ([3]; first compound 0.253 µM): 0.671
relative viability ([3]; first compound 0.8 µM): 0.749
relative viability ([3]; first compound 2.53 µM): 0.683
relative viability ([3]; first compound 8 µM): 0.744
relative viability ([4]; first compound 0.08 µM): 0.619
relative viability ([4]; first compound 0.253 µM): 0.783
relative viability ([4]; first compound 0.8 µM): 0.828
relative viability ([4]; first compound 2.53 µM): 0.857
relative viability ([4]; first compound 8 µM): 0.98

SK-LU-1
relative viability ([1]; first compound 0.01 µM): 1.08
relative viability ([1]; first compound 0.03162 µM): 1.14
relative viability ([1]; first compound 1 µM): 1.15
relative viability ([2]; first compound 0.01 µM): 1.39
relative viability ([2]; first compound 0.03162 µM): 1.2
relative viability ([2]; first compound 0.3162 µM): 0.849
relative viability ([2]; first compound 1 µM): 0.356
relative viability ([3]; first compound 0.08 µM): 0.603
relative viability ([3]; first compound 0.253 µM): 0.475
relative viability ([3]; first compound 0.8 µM): 0.399
relative viability ([3]; first compound 2.53 µM): 0.567
relative viability ([3]; first compound 8 µM): 0.512
relative viability ([4]; first compound 0.08 µM): 1.06
relative viability ([4]; first compound 0.253 µM): 0.968
relative viability ([4]; first compound 0.8 µM): 0.98
relative viability ([4]; first compound 2.53 µM): 1.1
relative viability ([4]; first compound 8 µM): 1.18

ChaGo-K-1
relative viability ([1]; first compound 0.01 µM): 1.03
relative viability ([1]; first compound 0.03162 µM): 1.37
relative viability ([1]; first compound 0.3162 µM): 0.763
relative viability ([1]; first compound 1 µM): 0.96
relative viability ([3]; first compound 0.08 µM): 0.445
relative viability ([3]; first compound 0.253 µM): 0.405
relative viability ([3]; first compound 0.8 µM): 0.438
relative viability ([3]; first compound 2.53 µM): 0.422
relative viability ([3]; first compound 8 µM): 0.341

NCI-H358
relative viability ([2]; first compound 0.01 µM): 0.733
relative viability ([2]; first compound 0.03162 µM): 0.592
relative viability ([2]; first compound 0.3162 µM): 0.347
relative viability ([2]; first compound 1 µM): 0.157
relative viability ([3]; first compound 0.08 µM): 0.656
relative viability ([3]; first compound 0.253 µM): 0.555
relative viability ([3]; first compound 0.8 µM): 0.551
relative viability ([3]; first compound 2.53 µM): 0.57
relative viability ([3]; first compound 8 µM): 0.569
relative viability ([4]; first compound 0.08 µM): 0.902
relative viability ([4]; first compound 0.253 µM): 0.927
relative viability ([4]; first compound 0.8 µM): 0.776
relative viability ([4]; first compound 2.53 µM): 0.833
relative viability ([4]; first compound 8 µM): 0.354

NCI-H1944
relative viability ([2]; first compound 0.01 µM): 1.16
relative viability ([2]; first compound 0.03162 µM): 1.02
relative viability ([2]; first compound 0.3162 µM): 1.12
relative viability ([2]; first compound 1 µM): 1.13
relative viability ([3]; first compound 0.08 µM): 0.407
relative viability ([3]; first compound 0.253 µM): 0.402
relative viability ([3]; first compound 0.8 µM): 0.426
relative viability ([3]; first compound 2.53 µM): 0.416
relative viability ([3]; first compound 8 µM): 0.33
relative viability ([4]; first compound 0.08 µM): 0.842
relative viability ([4]; first compound 0.253 µM): 0.718
relative viability ([4]; first compound 0.8 µM): 0.832
relative viability ([4]; first compound 2.53 µM): 0.858
relative viability ([4]; first compound 8 µM): 0.838

NCI-H1648
relative viability ([3]; first compound 0.253 µM): 0.793
relative viability ([3]; first compound 8 µM): 0.893

NCI-H2342
relative viability ([3]; first compound 0.08 µM): 0.476
relative viability ([3]; first compound 0.253 µM): 0.466
relative viability ([3]; first compound 0.8 µM): 0.452
relative viability ([3]; first compound 2.53 µM): 0.462
relative viability ([3]; first compound 8 µM): 0.711

SK-MES-1
relative viability ([2]; first compound 0.01 µM): 1.08
relative viability ([2]; first compound 0.03162 µM): 0.958
relative viability ([2]; first compound 0.3162 µM): 1.08
relative viability ([2]; first compound 1 µM): 0.953
relative viability ([3]; first compound 0.08 µM): 0.793
relative viability ([3]; first compound 0.253 µM): 0.703
relative viability ([3]; first compound 0.8 µM): 0.609
relative viability ([3]; first compound 2.53 µM): 0.691
relative viability ([3]; first compound 8 µM): 0.707
relative viability ([4]; first compound 0.08 µM): 0.987
relative viability ([4]; first compound 0.253 µM): 0.845
relative viability ([4]; first compound 0.8 µM): 0.824
relative viability ([4]; first compound 2.53 µM): 0.944
relative viability ([4]; first compound 8 µM): 0.847

NCI-H2170
relative viability ([3]; first compound 0.08 µM): 0.639
relative viability ([3]; first compound 0.253 µM): 0.557
relative viability ([3]; first compound 0.8 µM): 0.595
relative viability ([3]; first compound 2.53 µM): 0.614
relative viability ([3]; first compound 8 µM): 0.576
relative viability ([4]; first compound 0.08 µM): 0.872
relative viability ([4]; first compound 0.253 µM): 0.802
relative viability ([4]; first compound 0.8 µM): 0.78
relative viability ([4]; first compound 2.53 µM): 0.82
relative viability ([4]; first compound 8 µM): 0.76

NCI-H1793
relative viability ([2]; first compound 0.01 µM): 1.06
relative viability ([2]; first compound 0.03162 µM): 0.945
relative viability ([2]; first compound 0.3162 µM): 0.74
relative viability ([2]; first compound 1 µM): 0.684
relative viability ([3]; first compound 0.08 µM): 1
relative viability ([3]; first compound 0.253 µM): 0.762
relative viability ([3]; first compound 0.8 µM): 0.883
relative viability ([3]; first compound 2.53 µM): 0.952
relative viability ([3]; first compound 8 µM): 0.891
relative viability ([4]; first compound 0.08 µM): 0.871
relative viability ([4]; first compound 0.253 µM): 0.706
relative viability ([4]; first compound 2.53 µM): 0.858
relative viability ([4]; first compound 8 µM): 0.652

From the supplement of paper PMC10307832
